Source: US20250243176A1, “(S)-1-(1-ACRYLOYLPIPERIDIN-3-YL)-2-FLUORO-5,6,7,8,9,10-HEXAHYDROCYCLO HEPTA[B]INDOLE-4-CARBOXAMIDE, AND RELATED CRYSTALLINE FORMS, COMPOSITIONS, AND METHODS THEREOF” (GB005, Inc., priority 2021, published 2025)
In brackets after ≈: the same amount, converted by molar mass. Entries after “also recorded” stand apart in the source; their conditions may differ.

Key:
Assay type in all cases: physicochemical
[1] = Dynamic vapor sorption (DVS)
Method: Moisture sorption/desorption data was collected on a Vsorp Dynamic Moisture Sorption Analyzer (ProUmid GmbH & Co. KG, Germany). The sample was placed into a tared sample chamber and automatically weighed. • Sample temperature 25° C. • Cycle: Full cycle • Adsorption 0, 10, 20, 30, 40, 50, 60, 70, 80, 90 • Desorption 80, 70, 60, 50, 40, 30, 20, 10, 0

[2] = Competition slurry / inter-conversion study of Form I and Form III; conditions: competition slurry of Form I and Form III in water and heptane; RT to 80° C.
Method: Equal amounts of Form I and Form III were mixed in water and heptane to form slurries and stirred at RT (˜25° C.) or 80° C.

[3] = Solid-state stability of Form III
Method: The solid-state stability of Compound 1, Form III was examined in duplicate (sample 1 and sample 2) for 7 days under the conditions below and the resultant solids analyzed by XRPD: • 40° C./75% relative humidity (open); and • 60° C. (capped).
The solid-state stability of Compound 1, Form III was also examined for 3 months under the conditions below: • 40° C./75% relative humidity; and • 25° C./60% relative humidity

[4] = Grinding (mechanical treatment) of Form III
Method: Polymorph screening of Compound 1 was conducted using various crystallization methods, including slurry, cooling and evaporative crystallization, anti-solvent precipitation, thermal and mechanical treatment.

[5] = Solubility testing in bio-relevant media (Form III); conditions: 37° C.; for Solubility / solubility at 1 h: 1 h; for Solubility / solubility at 4 h: 4 h; for Solubility / solubility at 24 h: 24 h; for solubility at 1 h / solubility at 4 h / solubility at 24 h: thermodynamic from solid
Method: FaSSIF Buffer Solution: 6 mL 0.2 M NaOH, 388.7 mg of NaH2PO4, and 608.2 mg of NaCl were dissolved and diluted to 100 mL with water. The pH was 6.51. FaSSIF Media: 34.56 mg of SIF powder was dissolved in 15 mL of FaSSIF buffer solution. The solution was stirred and equilibrated at ambient temperature with light protection for 2 hours. SIF powder was purchased from Biorelevant.com.
FeSSIF Buffer Solution: 408.4 mg of NaOH, 868.5 mg of acetic acid, and 1.1802 g of NaCl were dissolved and diluted to 100 mL with water. The pH of the solution was 4.98. FeSSIF Media: 168.42 mg of SIF powder was dissolved in 15 mL of FeSSIF buffer solution. The solution was protected from light.
FaSSGF Buffer Solution: 222 mg of NaCl were dissolved with water, then added 1N HCl adjust the pH to 1.6. […] The solution was stirred and equilibrated at ambient temperature with light protection for 2 hours.
FaSSIF-V2 Buffer Solution: 154.4 mg NaOH, 246.7 mg of maleic acid and 445.6 mg of NaCl were dissolved and diluted to 100 mL with water. The pH was 6.51. FaSSIF-V2 Media: 28.64 mg of FaSSIF-V2 powder (purchased from Biorelevant.com) was dissolved in 8 mL of FaSSIF-V2 buffer solution. The solution was stirred and equilibrated at ambient temperature with light protection for 2 hours.
FeSSIF-V2 Buffer Solution: […] of NaOH, 710 mg of maleic acid, and 814.4 mg of NaCl were dissolved and diluted to 100 mL with water. The pH of the solution was 5.8. FeSSIF-V2 Media: 156.16 mg of FeSSIF-V2 powder was dissolved in 8 mL of FeSSIF-V2 buffer solution. The solution was protected from light.
Samples were prepared in duplicate for each medium. The suspensions were shaken at 37° C. for up to 24 hours.

[6] = Approximate solubility, solvent addition method, visual assessment
Method: The approximate solubility of the initial solid was determined using a solvent addition method via visual assessment of samples.
Values are rounded to nearest whole number and reported as “<” if dissolution was not observed, and as “>” if dissolution occurred after addition of first aliquot.

## C=CC(=O)N1CCC[C@@H](c2c(F)cc(C(N)=O)c3[nH]c4c(c23)CCCCC4)C1 [Form III, (S)-1-(1-acryloylpiperidin-3-yl)-2-fluoro-5,6,7,8,9,10-hexahydrocyclohepta[b]indole-4-carboxamide]
[1]; DVS
  hygroscopicity: non-hygroscopic
[1]; XRPD before and after DVS
  crystal Form after DVS testing: remained unchanged
[1]; up to 90% RH, 25° C.
  weight gain (DVS): < 0.5%
[2]
  relative stability of crystal forms: most stable Form; also recorded: more stable than Form I
[3]; 3 months, 40° C./75% relative humidity and 25° C./60% relative humidity
  solid-state stability: stable
[3]; 7 days, 40° C./75% relative humidity (open) and 60° C. (capped)
  solid-state stability: chemically and physically stable
[4]
  crystal form after grinding: remained unchanged
  crystallinity after grinding: decreased slightly
[5]; FaSSGF, pH 1.6, pH at 24 h 1.7
  Solubility: <LOQ
[5]; pH 5.8 Buffer, pH at 24 h 5.8
  Solubility: <LOQ
[5]; pH 6.5 Buffer, pH at 24 h 6.6
  Solubility: <LOQ
[5]; FaSSIF, pH 6.5
  solubility at 1 h: 6 µg/mL (≈ 15.6 µM)
  solubility at 4 h: 5 µg/mL (≈ 13 µM)
[5]; FaSSIF, pH 6.5, pH at 24 h 6.5
  solubility at 24 h: 7 µg/mL (≈ 18.3 µM)
[5]; FaSSIF-V2, pH 6.5
  solubility at 1 h: 4 µg/mL (≈ 10.4 µM)
  solubility at 4 h: 4 µg/mL (≈ 10.4 µM)
[5]; FaSSIF-V2, pH 6.5, pH at 24 h 6.6
  solubility at 24 h: 4 µg/mL (≈ 10.4 µM)
[5]; FeSSIF, pH 5.0
  solubility at 1 h: 73 µg/mL (≈ 190 µM)
  solubility at 4 h: 75 µg/mL (≈ 196 µM)
[5]; FeSSIF, pH 5.0, pH at 24 h 5.0
  solubility at 24 h: 90 µg/mL (≈ 235 µM)
[5]; FeSSIF-V2, pH 5.8
  solubility at 1 h: 120 µg/mL (≈ 313 µM)
  solubility at 4 h: 200 µg/mL (≈ 522 µM)
[5]; FeSSIF-V2, pH 5.8, pH at 24 h 5.9
  solubility at 24 h: 180 µg/mL (≈ 469 µM)

## C=CC(=O)N1CCC[C@@H](c2c(F)cc(C(N)=O)c3[nH]c4c(c23)CCCCC4)C1 [starting material, (S)-1-(1-acryloylpiperidin-3-yl)-2-fluoro-5,6,7,8,9,10-hexahydrocyclohepta[b]indole-4-carboxamide]
[6]; 1,4-dioxane
  Solubility: ~20000 µg/mL (≈ 52200 µM)
[6]; 1,4-dioxane, organic solvent or mixture, thermodynamic from solid, 1,4-dioxane, read-out: Solubility
  Solubility: > 20000 µg/mL
[6]; 2-butanone (MEK), organic solvent or mixture, thermodynamic from solid, 2-Butanone (MEK), read-out: Solubility
  Solubility: ~8300 µg/mL (≈ 21600 µM)
[6]; 2-propanol (IPA), organic solvent or mixture, thermodynamic from solid, 2-Propanol (IPA), read-out: Solubility
  Solubility: ~4200 µg/mL (≈ 11000 µM)
[6]; Dimethyl sulfoxide (DMSO)
  Solubility: >250000 µg/mL
[6]; Tetrahydrofuran (THF)
  Solubility: ~25000 µg/mL (≈ 65200 µM)
[6]; Water
  Solubility: <600 µg/mL
[6]; acetone, organic solvent or mixture, thermodynamic from solid, Acetone, read-out: Solubility
  Solubility: ~7100 µg/mL (≈ 18500 µM)
[6]; acetonitrile, organic solvent or mixture, thermodynamic from solid, Acetonitrile, read-out: Solubility
  Solubility: ~1700 µg/mL (≈ 4430 µM)
[6]; dimethyl sulfoxide (DMSO), organic solvent or mixture, thermodynamic from solid, Dimethyl sulfoxide (DMSO), read-out: Solubility
  Solubility: > 250000 µg/mL
[6]; ethanol, organic solvent or mixture, thermodynamic from solid, Ethanol, read-out: Solubility
  Solubility: ~5000 µg/mL (≈ 13000 µM)
[6]; ethyl acetate, organic solvent or mixture, thermodynamic from solid, Ethyl acetate, read-out: Solubility
  Solubility: ~2000 µg/mL (≈ 5220 µM)
[6]; isopropyl acetate, organic solvent or mixture, thermodynamic from solid, Isopropyl acetate, read-out: Solubility
  Solubility: ~1500 µg/mL (≈ 3910 µM)
[6]; methanol, organic solvent or mixture, thermodynamic from solid, Methanol, read-out: Solubility
  Solubility: ~7100 µg/mL (≈ 18500 µM)
[6]; n-Heptane
  Solubility: <600 µg/mL
[6]; n-butanol (NBA), organic solvent or mixture, thermodynamic from solid, n-Butanol (NBA), read-out: Solubility
  Solubility: ~2300 µg/mL (≈ 6000 µM)
[6]; n-heptane, organic solvent or mixture, thermodynamic from solid, n-Heptane, read-out: Solubility
  Solubility: < 600 µg/mL
[6]; tetrahydrofuran (THF), organic solvent or mixture, thermodynamic from solid, Tetrahydrofuran (THF), read-out: Solubility
  Solubility: > 20000 µg/mL
[6]; toluene, organic solvent or mixture, thermodynamic from solid, Toluene, read-out: Solubility
  Solubility: ~1300 µg/mL (≈ 3390 µM)
[6]; water, thermodynamic from solid, Water, read-out: Solubility
  Solubility: < 600 µg/mL
